Data: patent US8754242B2, “Herbicides” (Syngenta Crop Protection LLC, priority 2007, dated 2014)

Experiments:
Assay type in all cases: in vivo
[1] = system: Echinochloa crus-galli (ECHCG); test: Test Example 1 pre-emergence herbicidal activity; settings: Echinochloa crus-galli, 480 h, rate 250 g/ha, evaluated 20 days later, read-out: Pre-emergence activity ECHCG (100=total damage to plant; 0=no damage to plant)
Procedure: (§1) Monocotyledonous and dicotyledonous test plants were sown in standard soil in pots. After cultivation for one day (pre-emergence) or after 10 days cultivation (post-emergence) under controlled conditions in a glasshouse, the plants were sprayed with an aqueous spray solution derived from the formulation of the technical active ingredient in 0.6 ml acetone and 45 ml formulation solution containing 10.6% Emulsogen EL (Registry number 61791-12-6), 42.2% N-methylpyrrolidone, 42.2% dipropylene glycol monomethyl ether (Registry number 34590-94-8) and 0.2% X-77 (Registry number 11097-66-8). The test plants were then grown in a greenhouse under optimum conditions until, 15 days later for post-emergence and 20 days for pre-emergence, the test was evaluated (100=total damage to plant; 0=no damage to plant).
(§2) Alopecurus myosuroides (ALOMY), Avena fatua (AVEFA), Lolium perenne (LOLPE), Setaria faberi (SETFA), Digitaria sanguinalis (DIGSA), Echinochloa crus-galli (ECHCG)

Avena fatua (AVEFA) [2] = test: Test Example 1 pre-emergence herbicidal activity; settings: Avena fatua, 480 h, rate 250 g/ha, evaluated 20 days later, read-out: Pre-emergence activity AVEFA (100=total damage to plant; 0=no damage to plant)
Procedure: as §1, §2

[3] = system: Alopecurus myosuroides (ALOMY); test: Test Example 1 pre-emergence herbicidal activity; settings: Alopecurus myosuroides, 480 h, rate 250 g/ha, evaluated 20 days later, read-out: Pre-emergence activity ALOMY (100=total damage to plant; 0=no damage to plant)
Procedure: as §1, §2

Lolium perenne (LOLPE) [4] = test: Test Example 1 pre-emergence herbicidal activity; settings: Lolium perenne, 480 h, rate 250 g/ha, evaluated 20 days later, read-out: Pre-emergence activity LOLPE (100=total damage to plant; 0=no damage to plant)
Procedure: as §1, §2

Setaria faberi (SETFA) [5] = test: Test Example 1 pre-emergence herbicidal activity; settings: Setaria faberi, 480 h, rate 250 g/ha, evaluated 20 days later, read-out: Pre-emergence activity SETFA (100=total damage to plant; 0=no damage to plant)
Procedure: as §1, §2

[6] = system: Digitaria sanguinalis (DIGSA); test: Test Example 1 pre-emergence herbicidal activity; settings: Digitaria sanguinalis, 480 h, rate 250 g/ha, evaluated 20 days later, read-out: Pre-emergence activity DIGSA (100=total damage to plant; 0=no damage to plant)
Procedure: as §1, §2

[7] = system: Echinochloa crus-galli (ECHCG); test: Test Example 1 post-emergence herbicidal activity; settings: 360 h, rate 125 g/ha, evaluated 15 days later, read-out: Post-emergence activity ECHCG (100=total damage to plant; 0=no damage to plant)
Procedure: as §1, §2

Avena fatua (AVEFA) [8] = test: Test Example 1 post-emergence herbicidal activity; settings: 360 h, rate 125 g/ha, evaluated 15 days later, read-out: Post-emergence activity AVEFA (100=total damage to plant; 0=no damage to plant)
Procedure: as §1, §2

[9] = system: Alopecurus myosuroides (ALOMY); test: Test Example 1 post-emergence herbicidal activity; settings: 360 h, rate 125 g/ha, evaluated 15 days later, read-out: Post-emergence activity ALOMY (100=total damage to plant; 0=no damage to plant)
Procedure: as §1, §2

Lolium perenne (LOLPE) [10] = test: Test Example 1 post-emergence herbicidal activity; settings: 360 h, rate 125 g/ha, evaluated 15 days later, read-out: Post-emergence activity LOLPE (100=total damage to plant; 0=no damage to plant)
Procedure: as §1, §2

Setaria faberi (SETFA) [11] = test: Test Example 1 post-emergence herbicidal activity; settings: 360 h, rate 125 g/ha, evaluated 15 days later, read-out: Post-emergence activity SETFA (100=total damage to plant; 0=no damage to plant)
Procedure: as §1, §2

[12] = system: Digitaria sanguinalis (DIGSA); test: Test Example 1 post-emergence herbicidal activity; settings: 360 h, rate 125 g/ha, evaluated 15 days later, read-out: Post-emergence activity DIGSA (100=total damage to plant; 0=no damage to plant)
Procedure: as §1, §2

SMILES | pest or weed control at 250 g/ha [1] | pest or weed control at 250 g/ha (Avena fatua (AVEFA) [2]) | pest or weed control at 250 g/ha [3] | pest or weed control at 250 g/ha (Lolium perenne (LOLPE) [4]) | pest or weed control at 250 g/ha (Setaria faberi (SETFA) [5]) | pest or weed control at 250 g/ha [6] | pest or weed control at 125 g/ha [7] | pest or weed control at 125 g/ha (Avena fatua (AVEFA) [8]) | pest or weed control at 125 g/ha [9] | pest or weed control at 125 g/ha (Lolium perenne (LOLPE) [10]) | pest or weed control at 125 g/ha (Setaria faberi (SETFA) [11]) | pest or weed control at 125 g/ha [12]
CCCCC[C@]12C=C[C@H](O1)[C@@H]1C(=O)C(c3c(C)cc(C)cc3C)=C(O)[C@@H]12 (racemic) [Example T42] | 30% | 10% | 0% | 0% | 0% | 0% | 60% | 0% | 0% | 10% | 0% | 20%
Cc1cc(C)c(C2=C(O)[C@H]3[C@@H](C2=O)[C@@H]2C=C[C@@]3(CSC(C)C)O2)c(C)c1 (racemic) [Example T43] | 0% | 20% | 10% | 0% | 50% | 20% | 60% | 0% | 10% | 0% | 40% | 20%
CC1=C[C@@H]2O[C@H]1[C@H]1C(O)=C(c3c(C)cc(C)cc3C)C(=O)[C@H]12 (racemic) [Example T44] | 70% | 40% | 80% | 70% | 80% | 80% | 90% | 50% | 80% | 20% | 80% | 80%
COc1ccc([C@@H]2C[C@@H]3O[C@H]2[C@H]2C(O)=C(c4c(C)cc(C)cc4C)C(=O)[C@H]23)cc1 (racemic) [Example T57] | 70% | 30% | 50% | 100% | 80% | 60% | 80% | 70% | 70% | 40% | 70% | 70%
CSC1=C[C@@H]2O[C@@]1(C)[C@@H]1C(O)=C(c3c(C)cc(C)cc3C)C(=O)[C@H]21 (racemic) [Example T64] | 50% | 0% | 0% | 10% | 20% | 10% | 50% | 0% | 10% | 0% | 30% | 60%
Cc1cc(C)c(C2=C(O)[C@@H]3[C@@H]4O[C@@H](C[C@H]4c4ccc(F)cc4)[C@@H]3C2=O)c(C)c1 (racemic) [Example T70] | 100% | 50% | 80% | 100% | 90% | 90% | 80% | 70% | 90% | 70% | 70% | 70%
Cc1ccc([C@@H]2C[C@@H]3O[C@H]2[C@H]2C(O)=C(c4c(C)cc(C)cc4C)C(=O)[C@H]23)cc1 (racemic) [Example T71] | 50% | 0% | 30% | 0% | 20% | 50% | 60% | 10% | 50% | 20% | 50% | 70%
C=C[C@@H]1C[C@@H]2O[C@H]1[C@H]1C(O)=C(c3c(C)cc(C)cc3C)C(=O)[C@H]12 (racemic) [Example T99] | 100% | 60% | 80% | 100% | 80% | 80% | 100% | 30% | 80% | 10% | 70% | 60%
Cc1cc(C)c(C2=C(O)[C@@H]3[C@@H]4O[C@@H](C[C@H]4c4ccc(C(F)(F)F)nc4)[C@@H]3C2=O)c(C)c1 (racemic) [Example T128] | 100% | 70% | 70% | 90% | 100% | 100% | 100% | 90% | 80% | 80% | 100% | 100%
CCc1cc(C)cc(CC)c1C1=C(O)[C@@H]2[C@@H]3O[C@@H](C[C@H]3c3ccc(OC(F)(F)F)cc3)[C@@H]2C1=O (racemic) [Example T159] | 70% | 60% | 50% | 40% | 70% | 70% | 100% | 70% | 90% | 40% | 100% | 100%
CCc1cc(C)cc(CC)c1C1=C(O)[C@@H]2[C@@H]3O[C@@H](C[C@H]3c3ccc(Cl)cc3C)[C@@H]2C1=O (racemic) [Example T165] | 80% | 20% | 70% | 80% | 70% | 50% | 100% | 30% | 80% | 80% | 90% | 70%
CCc1cc(C)cc(CC)c1C1=C(O)[C@@H]2[C@@H]3O[C@@H](C[C@H]3c3ccccc3F)[C@@H]2C1=O (racemic) [Example T170] | 80% | 40% | 80% | 90% | 70% | 70% | 100% | 70% | 80% | 80% | 40% | 40%
